{"source": "patent US20120270237A9", "about": "“METHODS FOR THE IDENTIFICATION OF KINASE INTERACTING MOLECULES AND FOR THE PURIFICATION OF KINASE PROTEINS” (Cellzone AG, priority 2009, published 2012)", "assay_in_all_cases": "Kinobeads competition binding, HeLa Placenta lysate mix", "design_in_all_cases": "capturing and identification of kinases from mixed HeLa placenta lysates; endogenous in cells; host or cells: mixed lysate of HeLa cells and placenta tissue", "details_in_all_cases": "10 μM free compound", "key": {"[1]": {"target": "FES (Homo sapiens, UniProt P07332)", "sequence (P07332 whole entry)": "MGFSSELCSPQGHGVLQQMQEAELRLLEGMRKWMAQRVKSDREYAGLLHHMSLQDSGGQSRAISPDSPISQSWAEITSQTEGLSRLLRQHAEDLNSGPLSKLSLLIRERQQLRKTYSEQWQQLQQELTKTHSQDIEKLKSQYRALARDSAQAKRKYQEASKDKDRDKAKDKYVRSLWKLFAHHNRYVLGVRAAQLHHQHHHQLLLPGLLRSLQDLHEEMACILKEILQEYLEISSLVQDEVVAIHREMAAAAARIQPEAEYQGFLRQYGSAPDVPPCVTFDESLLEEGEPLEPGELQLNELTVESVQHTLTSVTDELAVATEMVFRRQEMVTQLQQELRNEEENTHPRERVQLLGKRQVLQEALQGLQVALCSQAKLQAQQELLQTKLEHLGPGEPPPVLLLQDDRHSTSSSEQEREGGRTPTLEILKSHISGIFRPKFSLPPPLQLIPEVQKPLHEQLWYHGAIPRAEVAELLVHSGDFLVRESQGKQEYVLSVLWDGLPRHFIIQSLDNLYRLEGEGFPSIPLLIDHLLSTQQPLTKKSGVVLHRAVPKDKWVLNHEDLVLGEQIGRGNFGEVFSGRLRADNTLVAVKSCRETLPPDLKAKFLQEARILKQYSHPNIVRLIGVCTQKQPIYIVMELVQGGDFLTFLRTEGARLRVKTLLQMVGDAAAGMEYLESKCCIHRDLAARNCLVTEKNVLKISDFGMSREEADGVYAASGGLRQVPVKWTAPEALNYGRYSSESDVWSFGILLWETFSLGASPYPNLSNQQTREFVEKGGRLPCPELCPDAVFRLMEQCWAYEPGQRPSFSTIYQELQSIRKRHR", "experimental": "(§1) To one aliquot of cell lysate 10 μM of the free compound (FIG. 3, CZC31326) was added and allowed to bind to proteins in the lysate. Then the affinity matrix with the immobilized compound was added to capture proteins that were not interacting with the previously added free compound. Beads were separated from the lysate and bead bound proteins were eluted in SDS sample buffer and subsequently separated by SDS-Polyacrylamide gel electrophoresis (FIG. 10). Suitable gel bands were cut out and subjected to in-gel proteolytic digestion with trypsin. The second lysate aliquot was processed identically, however no free compound was added (DMSO solvent control). Peptides originating from samples 1 and 2 were labeled with iTRAQ reagents (iTRAQ 114 and iTRAQ 117) and the combined samples were analyzed with a nano-flow liquid chromatography system coupled online to a tandem mass spectrometer (LC-MS/MS) experiment followed by iTRAQ reporter ion quantification in the MS/MS spectra as described in Example 2."}, "[2]": {"target": "AurB (Homo sapiens, UniProt Q96GD4)", "sequence (Q96GD4 whole entry)": "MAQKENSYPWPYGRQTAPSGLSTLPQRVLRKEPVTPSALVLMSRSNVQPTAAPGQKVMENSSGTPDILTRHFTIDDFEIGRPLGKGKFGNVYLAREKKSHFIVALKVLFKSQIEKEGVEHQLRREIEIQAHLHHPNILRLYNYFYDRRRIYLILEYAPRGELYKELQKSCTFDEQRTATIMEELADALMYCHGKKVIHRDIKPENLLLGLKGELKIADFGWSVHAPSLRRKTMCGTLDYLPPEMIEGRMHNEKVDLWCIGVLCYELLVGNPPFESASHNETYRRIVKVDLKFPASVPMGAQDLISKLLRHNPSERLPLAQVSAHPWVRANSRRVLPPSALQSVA", "experimental": "as §1"}, "[3]": {"target": "T1, MAP2K5 (Homo sapiens, UniProt Q13163)", "T1 sequence (Q13163 1-448)": "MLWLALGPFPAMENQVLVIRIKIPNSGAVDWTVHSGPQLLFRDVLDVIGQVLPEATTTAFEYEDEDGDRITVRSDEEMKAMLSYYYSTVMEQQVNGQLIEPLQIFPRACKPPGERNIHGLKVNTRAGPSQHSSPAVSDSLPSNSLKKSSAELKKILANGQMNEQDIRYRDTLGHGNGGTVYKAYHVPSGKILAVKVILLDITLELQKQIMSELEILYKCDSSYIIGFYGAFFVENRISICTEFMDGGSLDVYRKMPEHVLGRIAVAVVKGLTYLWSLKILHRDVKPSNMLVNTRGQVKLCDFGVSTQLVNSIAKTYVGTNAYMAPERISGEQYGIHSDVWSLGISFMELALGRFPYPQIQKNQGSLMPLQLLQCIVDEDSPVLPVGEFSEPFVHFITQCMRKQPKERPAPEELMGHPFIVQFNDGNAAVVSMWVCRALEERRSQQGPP", "experimental": "as §1"}, "[4]": {"target": "Erk2 (Homo sapiens, UniProt P28482)", "sequence (P28482 whole entry)": "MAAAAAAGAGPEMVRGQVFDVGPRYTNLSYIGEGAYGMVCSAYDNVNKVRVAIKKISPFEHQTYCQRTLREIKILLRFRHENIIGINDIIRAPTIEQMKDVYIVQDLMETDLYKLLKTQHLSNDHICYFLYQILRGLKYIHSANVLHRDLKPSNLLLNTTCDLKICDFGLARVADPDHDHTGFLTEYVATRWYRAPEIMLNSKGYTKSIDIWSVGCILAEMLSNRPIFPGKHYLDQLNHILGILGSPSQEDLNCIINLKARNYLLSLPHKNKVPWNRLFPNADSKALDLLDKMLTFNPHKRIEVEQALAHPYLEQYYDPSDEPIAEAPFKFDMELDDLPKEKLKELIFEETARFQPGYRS", "experimental": "as §1"}, "[5]": {"target": "CaMK2d (Homo sapiens, UniProt Q13557)", "sequence (Q13557 whole entry)": "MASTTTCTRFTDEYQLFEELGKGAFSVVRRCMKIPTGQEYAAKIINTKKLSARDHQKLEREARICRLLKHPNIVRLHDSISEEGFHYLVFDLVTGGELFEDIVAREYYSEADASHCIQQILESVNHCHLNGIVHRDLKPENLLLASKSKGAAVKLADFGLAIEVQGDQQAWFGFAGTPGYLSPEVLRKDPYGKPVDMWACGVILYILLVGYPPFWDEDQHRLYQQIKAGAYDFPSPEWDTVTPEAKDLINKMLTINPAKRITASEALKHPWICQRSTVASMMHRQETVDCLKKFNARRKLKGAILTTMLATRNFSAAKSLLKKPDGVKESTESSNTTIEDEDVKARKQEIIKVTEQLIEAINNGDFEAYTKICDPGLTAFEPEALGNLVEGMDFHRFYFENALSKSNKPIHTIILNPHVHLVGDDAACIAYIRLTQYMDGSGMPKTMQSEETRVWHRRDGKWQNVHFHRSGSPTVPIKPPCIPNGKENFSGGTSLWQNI", "experimental": "as §1"}, "[6]": {"target": "T2, GAK (Homo sapiens, UniProt O14976)", "T2 sequence (O14976 1-1311)": "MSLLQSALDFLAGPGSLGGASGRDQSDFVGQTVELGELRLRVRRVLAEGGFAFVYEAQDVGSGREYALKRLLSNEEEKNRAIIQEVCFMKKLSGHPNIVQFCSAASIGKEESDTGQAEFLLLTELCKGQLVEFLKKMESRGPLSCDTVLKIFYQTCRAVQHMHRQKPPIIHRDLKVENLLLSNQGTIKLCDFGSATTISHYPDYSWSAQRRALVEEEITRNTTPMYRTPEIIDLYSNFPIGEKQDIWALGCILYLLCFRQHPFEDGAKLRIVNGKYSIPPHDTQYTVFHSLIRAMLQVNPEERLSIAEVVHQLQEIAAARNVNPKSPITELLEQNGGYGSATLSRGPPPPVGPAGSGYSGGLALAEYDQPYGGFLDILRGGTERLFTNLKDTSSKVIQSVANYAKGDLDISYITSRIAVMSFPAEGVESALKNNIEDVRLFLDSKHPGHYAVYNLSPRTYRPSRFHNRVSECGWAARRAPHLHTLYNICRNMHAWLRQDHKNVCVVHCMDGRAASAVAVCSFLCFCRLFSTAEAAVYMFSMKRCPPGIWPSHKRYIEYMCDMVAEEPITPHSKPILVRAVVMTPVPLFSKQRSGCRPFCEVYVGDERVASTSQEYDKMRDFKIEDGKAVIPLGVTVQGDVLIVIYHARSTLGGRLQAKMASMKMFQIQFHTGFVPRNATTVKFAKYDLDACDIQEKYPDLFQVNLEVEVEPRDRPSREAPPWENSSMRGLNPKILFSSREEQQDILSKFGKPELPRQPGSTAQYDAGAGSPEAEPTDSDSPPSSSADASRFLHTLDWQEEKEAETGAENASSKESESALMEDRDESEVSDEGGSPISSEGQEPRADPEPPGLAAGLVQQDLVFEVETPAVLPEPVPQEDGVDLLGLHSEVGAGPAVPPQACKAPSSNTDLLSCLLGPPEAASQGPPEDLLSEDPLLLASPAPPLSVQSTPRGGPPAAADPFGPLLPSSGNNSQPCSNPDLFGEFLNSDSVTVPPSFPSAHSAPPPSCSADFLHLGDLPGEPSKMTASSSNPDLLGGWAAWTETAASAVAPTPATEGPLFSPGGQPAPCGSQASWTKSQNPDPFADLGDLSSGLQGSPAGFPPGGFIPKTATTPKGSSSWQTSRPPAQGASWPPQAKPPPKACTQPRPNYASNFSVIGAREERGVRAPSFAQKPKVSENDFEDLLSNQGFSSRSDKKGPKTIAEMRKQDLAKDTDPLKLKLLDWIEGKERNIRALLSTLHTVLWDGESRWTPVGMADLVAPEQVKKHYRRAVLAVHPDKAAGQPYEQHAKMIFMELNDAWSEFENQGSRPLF", "experimental": "as §1"}}, "data": [{"smiles": "CS(=O)(=O)Nc1ccccc1Nc1nc(Nc2cccc(OCCN)c2)ncc1Cl", "note": "[CZC31326, N-(2-(2-(3-(2-aminoethoxy)phenylamino)-5-chloropyrimidin-4-ylamino)phenyl)methanesulfonamide]", "values": [{"measurement": "inhibition at 10 µM", "setting": "[1]", "result": 95.1, "unit": "%"}, {"measurement": "inhibition at 10 µM", "setting": "[2]", "result": 90.8, "unit": "%"}, {"measurement": "inhibition at 10 µM", "setting": "[3]", "result": 90.4, "unit": "%"}, {"measurement": "inhibition at 10 µM", "setting": "[4]", "result": 68.5, "unit": "%"}, {"measurement": "inhibition at 10 µM", "setting": "[5]", "result": 72.1, "unit": "%"}, {"measurement": "inhibition at 10 µM", "setting": "[6]", "result": 93.6, "unit": "%"}]}]}
